Converted amounts (≈) assume the structure as drawn. “And” between values parts separate entries of the source, which are not always exact repeats. Equal values may be shown once. Read-outs that look alike come from different tables or passages of the source. Starred links: 1 amine or outer side, 2 acyl side, 3 side chain; linkers in the order of their positions; H or OH if unused. Positions of bridges follow the written chain, without caps; N, C: chain ends. Non-standard residues stand in square brackets, D forms with d. Residues, ends and D or L forms follow the SMILES beside them. *: point of attachment. pTerphenylCO(4''-OnC5H11) = CCCCCOc1ccc(-c2ccc(-c3ccc(C(=O)*)cc3)cc2)cc1; Orn(4R-OH,5R-OH) = O=C([C@H](C[C@@H](O)[C@@H](O)N[*:3])N[*:1])[*:2]; hTyr(3S-OH,4S-OH) = N[C@H](C(=O)O)[C@H](O)[C@@H](O)c1ccc(O)cc1; Pro(3S-OH,4S-Me) = C[C@H]1CN[C@H](C(=O)O)[C@H]1O; Hyp = O=C(O)[C@@H]1C[C@@H](O)CN1
How the values were obtained:
C. albicans NRRL Y-477 [1] = format: cell-based, Candida albicans
Experimental: (§1) Spontaneous mutant selection. […] Three individual colonies from each strain were used to start cultures in RPMI. […] One milliliter aliquots were spread onto SDA plates containing drug with sterile glass beads. Starting viable count was enumerated by triplicate plating of serial dilutions of the starting inoculum. […] Glycerol stocks of putative mutant colonies were stored at −80° C. […] Spontaneous mutation frequencies were calculated by dividing the number of resistant colonies on a given plate by the starting inoculum plated. A subset of mutants (weighted heavily towards those selected with CMP1) were then evaluated by MIC and sequencing of FKS gene hot spot regions.

[2] = tested on: C. glabrata ATCC 90030, ATCC 2001; format: cell-based, Candida glabrata; details: for Freq. (replicate mutation frequency): replicate plates 1-3; for Plate concentration: SDA, minimum concentration to cleanly inhibit growth
Experimental: as §1

C. albicans NRRL Y-477 [3] = experiment: microbe, parasite or virus in culture; format: cell-based, Candida albicans; details: for MIC: Candida albicans
[4] = tested on: C. glabrata ATCC 90030, ATCC 2001; experiment: microbe, parasite or virus in culture; format: cell-based, Candida glabrata; details: for MIC fold-shift: WT to P20; for MIC: Nakaseomyces glabratus
C. parapsilosis CP02 = experiment: microbe, parasite or virus in culture; format: cell-based, Candida parapsilosis; details: for MIC: Lodderomyces parapsilosis
C. krusei ATCC 6258 = experiment: microbe, parasite or virus in culture; format: cell-based, Candida krusei; details: for MIC: Pichia kudriavzevii
[5] = tested on: C. albicans vaginal isolates; experiment: Susceptibility testing of VVC clinical isolates at pH 7 and 4 (CLSI M27-A3); format: cell-based, Candida albicans; details: Candida albicans
[6] = tested on: C. parapsilosis vaginal isolates; experiment: as above; format: cell-based, Candida parapsilosis
Aspergillus fumigatus = experiment: Broth microdilution of invasive fungal isolates (CLSI M27-A3/M38-A2), MEC; format: cell-based; details: 56 isolates

CCCCCOc1ccc(-c2ccc(-c3ccc(C(=O)N[C@H]4C[C@@H](O)[C@@H](O)NC(=O)[C@@H]5[C@@H](O)[C@@H](C)CN5C(=O)[C@H]([C@@H](C)O)NC(=O)[C@H]([C@H](O)[C@@H](O)c5ccc(O)cc5)NC(=O)[C@@H]5C[C@@H](O)CN5C(=O)[C@H]([C@@H](C)O)NC4=O)cc3)cc2)cc1 [ANID, anidulafungin] ({pTerphenylCO(4''-OnC5H11)}-[Orn(4R-OH,5R-OH)]T[Hyp][hTyr(3S-OH,4S-OH)]T[Pro(3S-OH,4S-Me)]; lactam 1-C)
Median mutation frequency (C. albicans NRRL Y-477 [1]): 1.59E−07 | Plate concentration (C. albicans NRRL Y-477 [1]; SDA, minimum concentration to cleanly inhibit growth): 0.015 µg/mL | Freq. (replicate mutation frequency) (C. albicans NRRL Y-477 [1]; replicate plates 1-3): 1.88E−07 and 1.59E−07 and 1.56E−07 | Median mutation frequency ([2]; ATCC 2001): 7.02E−08 | Freq. (replicate mutation frequency) ([2]; ATCC 2001): 7.02E−08 and 6.71E−08 and 1.09E−07 | Median mutation frequency ([2]; ATCC 90030): 9.01E−09 | Freq. (replicate mutation frequency) ([2]; ATCC 90030): 4.41E−09 and 2.10E−08 and 9.01E−09 | Plate concentration ([2]; ATCC 2001): 0.125 µg/mL | Plate concentration ([2]; ATCC 90030): 0.125 µg/mL | MIC (C. albicans NRRL Y-477 [3]; NRRLY477, 48 h, NRRL Y-477 P20-1, selecting drug ANID, Fks1 HS1 S645Y, 48 h read): 4 µg/mL (≈ 3.51 µM) | MIC (C. albicans NRRL Y-477 [3]; NRRLY477, 48 h, NRRL Y-477 P20-1, selecting drug CMP1, 48 h read): 0.125 µg/mL (≈ 0.11 µM) | MIC (C. albicans NRRL Y-477 [3]; NRRLY477, NRRL Y-477 P20-1, selecting drug CAS): 0.015 µg/mL (≈ 0.0132 µM) | MIC (C. albicans NRRL Y-477 [3]; NRRLY477, read-out: MIC P20, NRRL Y-477, total population after 20 passages with the selecting drug, MIC of selecting drug): 4 µg/mL | MIC fold-shift (C. albicans NRRL Y-477 [3]; NRRL Y-477, WT to P20): 256 | MIC fold-shift ([4]; ATCC 2001): 64 | MIC fold-shift ([4]; ATCC 90030): 64 | MIC ([4]; 48 h, ATCC 90030 P20-1, selecting drug ANID, Fks2 HS1 D666I, 48 h read): 4 µg/mL (≈ 3.51 µM) | MIC ([4]; 48 h, ATCC 90030 P20-1, selecting drug CAS, Fks2 HS1 F659I D666Y, 48 h read): 8 µg/mL (≈ 7.02 µM) | MIC ([4]; ATCC 2001 P20-2, selecting drug ANID, Fks1 HS1 D632Y): 4 µg/mL (≈ 3.51 µM) | MIC ([4]; ATCC 2001 P20-2, selecting drug CAS): 2 µg/mL (≈ 1.75 µM) | MIC ([4]; ATCC 2001 P20-2, selecting drug CMP1): 1 µg/mL (≈ 0.877 µM) | MIC ([4]; ATCC 90030 P20-2, selecting drug CMP1): 1 µg/mL (≈ 0.877 µM) | MIC ([4]; read-out: MIC P20, ATCC 2001, total population after 20 passages with the selecting drug, MIC of selecting drug): 4 µg/mL | MIC ([4]; read-out: MIC P20, ATCC 90030, total population after 20 passages with the selecting drug, MIC of selecting drug): 4 µg/mL | MIC fold-shift (C. parapsilosis CP02; CP02, WT to P20): 1 | MIC (C. parapsilosis CP02; CP02, CP02 P20-1, selecting drug ANID): 4 µg/mL (≈ 3.51 µM) | MIC (C. parapsilosis CP02; CP02, CP02 P20-1, selecting drug CAS): 4 µg/mL (≈ 3.51 µM) | MIC (C. parapsilosis CP02; CP02, CP02 P20-1, selecting drug CMP1): 8 µg/mL (≈ 7.02 µM) | MIC (C. parapsilosis CP02; CP02, read-out: MIC P20, CP02, total population after 20 passages with the selecting drug, MIC of selecting drug): 4 µg/mL | MIC fold-shift (C. krusei ATCC 6258; ATCC 6258, WT to P20): 2 | MIC (C. krusei ATCC 6258; ATCC6258): 0.125 µg/mL (≈ 0.11 µM) | MIC (C. krusei ATCC 6258; ATCC6258, read-out: MIC P20): 0.125 µg/mL (≈ 0.11 µM) | MIC90 ([5]; 24 h, pH 4): 0.03 µg/mL (≈ 0.0263 µM) | MIC90 ([5]; 24 h, pH 7): 0.008 µg/mL (≈ 0.00702 µM) | MIC90 ([5]; 48 h, pH 4): 0.06 µg/mL (≈ 0.0526 µM) | MIC ([5]; 48 h, pH 4, fluconazole-resistant isolate 1, pH 4): 0.03 µg/mL (≈ 0.0263 µM) | MIC ([5]; 48 h, pH 4, fluconazole-resistant isolate 2, pH 4): 0.03 µg/mL (≈ 0.0263 µM) | MIC ([5]; 48 h, pH 4, fluconazole-resistant isolate 3, pH 4): 0.03 µg/mL (≈ 0.0263 µM) | MIC ([5]; 48 h, pH 4, fluconazole-resistant isolate 4, pH 4): 0.06 µg/mL (≈ 0.0526 µM) | MIC ([5]; 48 h, pH 4, fluconazole-resistant isolate 5, pH 4): 0.125 µg/mL (≈ 0.11 µM) | MIC ([5]; 48 h, pH 4, fluconazole-resistant isolate 6, pH 4): 0.06 µg/mL (≈ 0.0526 µM) | MIC ([5]; 48 h, pH 4, fluconazole-resistant isolate 7, pH 4): 0.06 µg/mL (≈ 0.0526 µM) | MIC ([5]; 48 h, pH 4, fluconazole-resistant isolate 8, pH 4): 0.06 µg/mL (≈ 0.0526 µM) | MIC ([5]; 48 h, pH 4, fluconazole-resistant isolate 9, pH 4): 0.25 µg/mL (≈ 0.219 µM) | MIC ([5]; 48 h, pH 4, fluconazole-resistant isolate 10, pH 4): 0.06 µg/mL (≈ 0.0526 µM) | MIC90 ([5]; 48 h, pH 7): 0.03 µg/mL (≈ 0.0263 µM) | MIC ([5]; 48 h, pH 7, fluconazole-resistant isolate 1, pH 7): 0.008 µg/mL (≈ 0.00702 µM) | MIC ([5]; 48 h, pH 7, fluconazole-resistant isolate 2, pH 7): 0.03 µg/mL (≈ 0.0263 µM) | MIC ([5]; 48 h, pH 7, fluconazole-resistant isolate 3, pH 7): 0.008 µg/mL (≈ 0.00702 µM) | MIC ([5]; 48 h, pH 7, fluconazole-resistant isolate 4, pH 7): 0.008 µg/mL (≈ 0.00702 µM) | MIC ([5]; 48 h, pH 7, fluconazole-resistant isolate 5, pH 7): 0.016 µg/mL (≈ 0.014 µM) | MIC ([5]; 48 h, pH 7, fluconazole-resistant isolate 6, pH 7): 0.008 µg/mL (≈ 0.00702 µM) | MIC ([5]; 48 h, pH 7, fluconazole-resistant isolate 7, pH 7): 0.008 µg/mL (≈ 0.00702 µM) | MIC ([5]; 48 h, pH 7, fluconazole-resistant isolate 8, pH 7): 0.008 µg/mL (≈ 0.00702 µM) | MIC ([5]; 48 h, pH 7, fluconazole-resistant isolate 9, pH 7): 0.125 µg/mL (≈ 0.11 µM) | MIC ([5]; 48 h, pH 7, fluconazole-resistant isolate 10, pH 7): 0.008 µg/mL (≈ 0.00702 µM) | MIC90 ([6]; 24 h, pH 4): 1 µg/mL (≈ 0.877 µM) | MIC90 ([6]; 24 h, pH 7): 2 µg/mL (≈ 1.75 µM) | MIC90 ([6]; 48 h, pH 4): 2 µg/mL (≈ 1.75 µM) | MIC90 ([6]; 48 h, pH 7): 4 µg/mL (≈ 3.51 µM) | Cumulative % of isolates inhibited at MEC 0.015 μg/mL (Aspergillus fumigatus): (91.1) % | Cumulative % of isolates inhibited at MEC 0.03 μg/mL (Aspergillus fumigatus): (100.0) % | Cumulative % of isolates inhibited at MEC ≤0.008 μg/mL (Aspergillus fumigatus): (53.6) % | MEC50 (Aspergillus fumigatus): 0.008 µg/mL | Number of isolates inhibited at MEC 0.015 μg/mL (Aspergillus fumigatus): 21 | Number of isolates inhibited at MEC 0.03 μg/mL (Aspergillus fumigatus): 5 | Number of isolates inhibited at MEC ≤0.008 μg/mL (Aspergillus fumigatus): 30
